Patent US20220119354A1, “DIAMINO-SUBSTITUTED PYRIDINES AND PYRIMIDINES AS HERBICIDES” (FMC Corporation, priority 2019, published 2022)

Columns and labels:
Format in all cases: in vivo
[1] = system: barnyardgrass (Echinochloa crus-galli); assay: Test B flooded paddy test, barnyardgrass; conditions: Flood, 250 g ai/ha, applied to paddy water, 2-leaf stage, visual evaluation after 13 to 15 d
Procedure, shortened: (§1)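 Growth to two leaves preceded treatment. Flooding to 3 cm above soil surface, then water-applied compound; depth kept constant. Scored visually relative to controls after 13–15 d greenhouse; 100 means full control.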

[2] = system: blackgrass (Alopecurus myosuroides); assay: Test A postemergence, blackgrass; conditions: 0 to 100 scale, 0 no effect, 100 complete control
Procedure, shortened: (§2)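 Greenhouse pot test, loam/sand soil. Pre: directed soil spray at planting; post: foliar spray at 1–2 leaf stage (2–10 cm). Chemical in non-phytotoxic solvent + surfactant. Visual rating ~10 d, 0 = no effect, 100 = complete control.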

[3] = system: kochia (Kochia scoparia); assay: Test A preemergence, kochia; conditions: 0 to 100 scale, 0 is no effect, 100 is complete control
Procedure, shortened: as §2

[4] = system: wheat (Triticum aestivum); assay: Test A postemergence, wheat; conditions: 0 to 100 scale, 0 no effect, 100 complete control
Procedure, shortened: as §2

[5] = system: ragweed (common ragweed, Ambrosia elatior); assay: Test A postemergence, ragweed; conditions: 0 to 100 scale, 0 no effect, 100 complete control
Procedure, shortened: as §2

[6] = system: sedge, umbrella (small-flower umbrella sedge, Cyperus difformis); assay: Test B flooded paddy test, umbrella sedge; conditions: Flood, 250 g ai/ha, applied to paddy water, 2-leaf stage, visual evaluation after 13 to 15 d
Procedure, shortened: as §1

[7] = system: ducksalad (Heteranthera limosa); assay: Test B flooded paddy test, ducksalad; conditions: Flood, 250 g ai/ha, applied to paddy water, 2-leaf stage, visual evaluation after 13 to 15 d
Procedure, shortened: as §1

[8] = system: barnyardgrass (Echinochloa crus-galli); assay: Test A preemergence, barnyardgrass; conditions: 0 to 100 scale, 0 is no effect, 100 is complete control
Procedure, shortened: as §2

[9] = system: pigweed (Amaranthus retroflexus); assay: Test A postemergence, pigweed; conditions: 0 to 100 scale, 0 no effect, 100 complete control
Procedure, shortened: as §2

[10] = system: ryegrass, Italian (Lolium multiflorum); assay: Test A preemergence, Italian ryegrass; conditions: 0 to 100 scale, 0 is no effect, 100 is complete control
Procedure, shortened: as §2

[11] = system: ryegrass, Italian (Lolium multiflorum); assay: Test A postemergence, Italian ryegrass; conditions: 0 to 100 scale, 0 no effect, 100 complete control
Procedure, shortened: as §2

[12] = system: pigweed (Amaranthus retroflexus); assay: Test A preemergence, pigweed; conditions: 0 to 100 scale, 0 is no effect, 100 is complete control
Procedure, shortened: as §2

[13] = system: ragweed (common ragweed, Ambrosia elatior); assay: Test A preemergence, ragweed; conditions: 0 to 100 scale, 0 is no effect, 100 is complete control
Procedure, shortened: as §2

[14] = system: galium (catchweed bedstraw, Galium aparine); assay: Test A postemergence, galium; conditions: 0 to 100 scale, 0 no effect, 100 complete control
Procedure, shortened: as §2

[15] = system: kochia (Kochia scoparia); assay: Test A postemergence, kochia; conditions: 0 to 100 scale, 0 no effect, 100 complete control
Procedure, shortened: as §2

[16] = system: corn (Zea mays); assay: Test A postemergence, corn; conditions: 0 to 100 scale, 0 no effect, 100 complete control
Procedure, shortened: as §2

[17] = system: rice (Oryza sativa); assay: Test B flooded paddy test, rice; conditions: Flood, 250 g ai/ha, applied to paddy water, 2-leaf stage, visual evaluation after 13 to 15 d
Procedure, shortened: as §1

[18] = system: foxtail, giant (Setaria faberii); assay: Test A postemergence, giant foxtail; conditions: 0 to 100 scale, 0 no effect, 100 complete control
Procedure, shortened: as §2

[19] = system: foxtail, giant (Setaria faberii); assay: Test A preemergence, giant foxtail; conditions: 0 to 100 scale, 0 is no effect, 100 is complete control
Procedure, shortened: as §2

[20] = system: barnyardgrass (Echinochloa crus-galli); assay: Test A postemergence, barnyardgrass; conditions: 0 to 100 scale, 0 no effect, 100 complete control
Procedure, shortened: as §2

Row | Structure (SMILES) | Plant response rating, Barnyardgrass (0 to 100 scale, 0 is no effect, 100 is complete control) [1] | Plant response rating, Blackgrass ([2]; 125 g ai/ha) | Plant response rating, Blackgrass ([2]; 500 g ai/ha) | Kochia plant response rating ([3]; 125 g ai/ha) | Kochia plant response rating ([3]; 500 g ai/ha) | Plant response rating, Wheat ([4]; 125 g ai/ha) | Plant response rating, Wheat ([4]; 500 g ai/ha) | Plant response rating, Ragweed ([5]; 125 g ai/ha) | Plant response rating, Ragweed ([5]; 500 g ai/ha) | Plant response rating, Sedge, Umbrella (0 to 100 scale, 0 is no effect, 100 is complete control) [6] | Plant response rating, Ducksalad (0 to 100 scale, 0 is no effect, 100 is complete control) [7] | Barnyardgrass plant response rating ([8]; 125 g ai/ha) | Barnyardgrass plant response rating ([8]; 500 g ai/ha) | Plant response rating, Pigweed ([9]; 125 g ai/ha) | Plant response rating, Pigweed ([9]; 500 g ai/ha) | Ryegrass, Italian plant response rating ([10]; 125 g ai/ha) | Ryegrass, Italian plant response rating ([10]; 500 g ai/ha) | Plant response rating, Ryegrass, Italian ([11]; 125 g ai/ha) | Plant response rating, Ryegrass, Italian ([11]; 500 g ai/ha) | Pigweed plant response rating ([12]; 125 g ai/ha) | further results
1 | CC[C@H](Nc1ncc(C(F)(F)F)c(N)n1)c1coc2ccccc12 [Compound 81] | 0 | 0 | 0 | 0 | 20 | 0 | 0 | 0 | 20 | 0 | 0 | 0 | 0 | 0 | 80 | 0 | 60 | 0 | 0 | 0 | Pigweed plant response rating ([12]; 500 g ai/ha): 10; Ragweed plant response rating ([13]; 125 g ai/ha): 0; Ragweed plant response rating ([13]; 500 g ai/ha): 70; Plant response rating, Galium ([14]; 125 g ai/ha): 0; Plant response rating, Galium ([14]; 500 g ai/ha): 30; Plant response rating, Kochia ([15]; 125 g ai/ha): 20; Plant response rating, Kochia ([15]; 500 g ai/ha): 40; Plant response rating, Corn ([16]; 125 g ai/ha): 0; Plant response rating, Corn ([16]; 500 g ai/ha): 0; Plant response rating, Rice (0 to 100 scale, 0 is no effect, 100 is complete control) [17]: 0; Plant response rating, Foxtail, Giant ([18]; 125 g ai/ha): 0; Plant response rating, Foxtail, Giant ([18]; 500 g ai/ha): 10; Foxtail, Giant plant response rating ([19]; 125 g ai/ha): 0; Foxtail, Giant plant response rating ([19]; 500 g ai/ha): 20; Plant response rating, Barnyardgrass ([20]; 125 g ai/ha): 0; Plant response rating, Barnyardgrass ([20]; 500 g ai/ha): 0
2 | Nc1nc(N[C@@H](c2cc3ccccc3s2)C2CC2)ncc1C(F)(F)F [Compound 84] | 85 | 0 | 0 | 90 | 90 | 0 | 0 | 40 | 90 | 90 | 65 | 90 | 90 | 100 | 100 | 70 | 90 | 0 | 70 | 100 | Pigweed plant response rating ([12]; 500 g ai/ha): 100; Ragweed plant response rating ([13]; 125 g ai/ha): 100; Ragweed plant response rating ([13]; 500 g ai/ha): 100; Plant response rating, Galium ([14]; 125 g ai/ha): 60; Plant response rating, Galium ([14]; 500 g ai/ha): 80; Plant response rating, Kochia ([15]; 125 g ai/ha): 80; Plant response rating, Kochia ([15]; 500 g ai/ha): 90; Plant response rating, Corn ([16]; 125 g ai/ha): 0; Plant response rating, Corn ([16]; 500 g ai/ha): 0; Plant response rating, Rice (0 to 100 scale, 0 is no effect, 100 is complete control) [17]: 20; Plant response rating, Foxtail, Giant ([18]; 125 g ai/ha): 50; Plant response rating, Foxtail, Giant ([18]; 500 g ai/ha): 90; Foxtail, Giant plant response rating ([19]; 125 g ai/ha): 90; Foxtail, Giant plant response rating ([19]; 500 g ai/ha): 100; Plant response rating, Barnyardgrass ([20]; 125 g ai/ha): 70; Plant response rating, Barnyardgrass ([20]; 500 g ai/ha): 100
